# Experimental data taken from PubChem BioAssay AID330 (DTP/NCI, 2004).
# Several values for one entry are separate records, joined by “and”; a condition that tells them apart may be missing. Equal entries are not always repeated. Toxic doses and inconclusive results are not listed.
# System: P388 leukemia ip, CD2F1 mice, survival T/C
# Experiment: NCI In Vivo Anticancer Drug Screen. Data for tumor model P388 Leukemia (intraperitoneal) in CD2F1 (CDF1) mice
# Details: endpoint: median survival time, higher = longer survival
# Outline: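 Mice carrying the transplanted tumor received test compound or vehicle. Survival was recorded in each group, and the value is the treated-group measurement divided by that of the vehicle-treated control group.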
# [1] = dose: 12.5 mg/kg/injection, schedule: Q01DX005 (ip), vehicle: saline with Tween-80
# [2] = dose: 25.0 mg/kg/injection, schedule: Q01DX005 (ip), vehicle: saline with Tween-80
# [3] = dose: 50.0 mg/kg/injection, schedule: Q01DX005 (ip), vehicle: saline with Tween-80
# [4] = dose: 100.0 mg/kg/injection, schedule: Q01DX005 (ip), vehicle: saline with Tween-80
# [5] = dose: 100.0 mg/kg/injection, schedule: Q04DX003 (ip), vehicle: saline with Tween-80
# [6] = dose: 200.0 mg/kg/injection, schedule: Q04DX003 (ip), vehicle: saline with Tween-80
# [7] = dose: 60.0 mg/kg/injection, schedule: Q01DX005 (ip), vehicle: saline with Tween-80
# [8] = dose: 120.0 mg/kg/injection, schedule: Q01DX005 (ip), vehicle: saline with Tween-80
# [9] = dose: 240.0 mg/kg/injection, schedule: Q01DX005 (ip), vehicle: saline with Tween-80
# [10] = dose: 100.0 mg/kg/injection, schedule: Q01DX009 (ip), vehicle: saline with Tween-80
# [11] = dose: 200.0 mg/kg/injection, schedule: Q01DX009 (ip), vehicle: saline with Tween-80
# [12] = dose: 50.0 mg/kg/injection, schedule: Q01DX009 (ip), vehicle: Klucel (hydroxypropylcellulose) (HPC)
# [13] = dose: 100.0 mg/kg/injection, schedule: Q01DX009 (ip), vehicle: Klucel (hydroxypropylcellulose) (HPC)
# [14] = dose: 25.0 mg/kg/injection, schedule: Q01DX009 (ip), vehicle: saline
# [15] = dose: 50.0 mg/kg/injection, schedule: Q01DX009 (ip), vehicle: saline
# [16] = dose: 100.0 mg/kg/injection, schedule: Q01DX009 (ip), vehicle: saline
# [17] = dose: 50.0 mg/kg/injection, schedule: Q01DX009 (ip), vehicle: saline with Tween-80
# [18] = dose: 12.5 mg/kg/injection, schedule: Q01DX009 (ip), vehicle: saline
structure (smiles),measurement,setting,value
C=CC1(C)CCC2C(=CCC3C(C)(COC4OC(CO)C(O)C(O)C4O)C(O)CCC23C)C1 (configuration not stated),T/C,"dose: 3.0 mg/kg/injection, schedule: Q01DX009 (ip), vehicle: Klucel (hydroxypropylcellulose) (HPC)",100 % of control
same,T/C,"dose: 6.0 mg/kg/injection, schedule: Q01DX009 (ip), vehicle: Klucel (hydroxypropylcellulose) (HPC)",94 % of control
same,T/C,"dose: 12.0 mg/kg/injection, schedule: Q01DX009 (ip), vehicle: Klucel (hydroxypropylcellulose) (HPC)",103 % of control
same,T/C,"dose: 24.0 mg/kg/injection, schedule: Q01DX009 (ip), vehicle: Klucel (hydroxypropylcellulose) (HPC)",103 % of control
same,T/C,"dose: 48.0 mg/kg/injection, schedule: Q01DX009 (ip), vehicle: Klucel (hydroxypropylcellulose) (HPC)",106 % of control
O=P1(O)OC[C@H]2CCC[C@@H]2O1,T/C,"dose: 60.0 mg/kg/injection, schedule: Q01DX005 (ip), vehicle: saline",106 % of control
same,T/C,"dose: 120.0 mg/kg/injection, schedule: Q01DX005 (ip), vehicle: saline",97 % of control
Cc1cc(NC(=O)c2ccc(N=Nc3cc(S(=O)(=O)O)c4ccccc4c3O)cc2)ccc1N=Nc1ccc2cc(S(=O)(=O)O)cc(S(=O)(=O)O)c2c1,T/C,[1],102 % of control and 97 % of control
same,T/C,[2],99 % of control and 97 % of control
same,T/C,[3],101 % of control and 111 % of control
same,T/C,[4],102 % of control and 109 % of control and 117 % of control
same,T/C,"dose: 200.0 mg/kg/injection, schedule: Q01DX005 (ip), vehicle: saline with Tween-80",101 % of control
O=NN(C(=O)NCc1cccnc1)C1CCCCC1,T/C,"dose: 25.0 mg/kg/injection, schedule: Q01DX001 (ip), vehicle: distilled water + Tween-80",115 % of control
same,T/C,"dose: 50.0 mg/kg/injection, schedule: Q01DX001 (ip), vehicle: distilled water + Tween-80",110 % of control
same,T/C,"dose: 100.0 mg/kg/injection, schedule: Q01DX001 (ip), vehicle: distilled water + Tween-80",106 % of control
same,T/C,"dose: 200.0 mg/kg/injection, schedule: Q01DX001 (ip), vehicle: distilled water + Tween-80",102 % of control
same,T/C,"dose: 400.0 mg/kg/injection, schedule: Q01DX001 (ip), vehicle: distilled water + Tween-80",102 % of control
CCOc1ccc2nc3cc(N=Nc4ccc(N)nc4N)ccc3c(N)c2c1,T/C,[1],106 % of control
same,T/C,[2],113 % of control
same,T/C,[3],104 % of control and 105 % of control
CCCCN(C)N=Nc1c(C(N)=O)n[nH]c1C,T/C,"dose: 44.0 mg/kg/injection, schedule: Q04DX003 (ip), vehicle: saline with Tween-80",122 % of control
same,T/C,[5],150 % of control
same,T/C,[6],90 % of control
COc1cc2cc[n+]3c(c2cc1OC)-c1c2cc(OC)c(OC)cc2cc[n+]1CC3,T/C,"dose: 12.5 mg/kg/injection, schedule: Q01DX009 (ip), vehicle: saline with Tween-80",100 % of control
same,T/C,"dose: 25.0 mg/kg/injection, schedule: Q01DX009 (ip), vehicle: saline with Tween-80",97 % of control
COC(=O)N1c2ccccc2N(C(=O)OC)C1C#N,T/C,[7],108 % of control
same,T/C,[8],98 % of control
same,T/C,[9],112 % of control
CCc1c(NCCCl)c(C(=O)NCCCl)c2nc3ccccc3n2c1NCCCl,T/C,"dose: 3.75 mg/kg/injection, schedule: Q01DX005 (ip), vehicle: saline with Tween-80",100 % of control
same,T/C,"dose: 7.5 mg/kg/injection, schedule: Q01DX005 (ip), vehicle: saline with Tween-80",106 % of control
same,T/C,"dose: 15.0 mg/kg/injection, schedule: Q01DX005 (ip), vehicle: saline with Tween-80",108 % of control
C=CCOc1nc(OCC=C)nc(OCC=C)n1,T/C,[10],97 % of control
same,T/C,[11],93 % of control
CC1(C)C(=O)N2C(=O)CC(=O)N2C1=O,T/C,[8],97 % of control
same,T/C,[9],93 % of control
CCOC(=O)C(=O)Cc1nc2ccccc2nc1C,T/C,[7],93 % of control
same,T/C,[8],97 % of control
N#Cc1ncc(Cl)c2ccccc12,T/C,"dose: 50.0 mg/kg/injection, schedule: Q01DX009 (ip), vehicle: suspension in saline",90 % of control
same,T/C,"dose: 100.0 mg/kg/injection, schedule: Q01DX009 (ip), vehicle: suspension in saline",87 % of control
same,T/C,"dose: 200.0 mg/kg/injection, schedule: Q01DX009 (ip), vehicle: suspension in saline",97 % of control
O=c1c2ccccc2oc2c(Br)c3c(c(O)c12)CCCC3,T/C,"dose: 50.0 mg/kg/injection, schedule: Q01DX005 (ip), vehicle: Klucel (hydroxypropylcellulose) (HPC)",103 % of control
same,T/C,"dose: 100.0 mg/kg/injection, schedule: Q01DX005 (ip), vehicle: Klucel (hydroxypropylcellulose) (HPC)",87 % of control
same,T/C,"dose: 200.0 mg/kg/injection, schedule: Q01DX005 (ip), vehicle: Klucel (hydroxypropylcellulose) (HPC)",96 % of control
O=[N+]([O-])c1ccc2c3c(ccc([N+](=O)[O-])c13)CC2,T/C,"dose: 25.0 mg/kg/injection, schedule: Q01DX009 (ip), vehicle: Klucel (hydroxypropylcellulose) (HPC)",93 % of control
same,T/C,[12],93 % of control
same,T/C,[13],91 % of control
NC(=O)c1csc(C2OC3COP(=O)(O)OC3C2O)n1 (configuration not stated),T/C,"dose: 12.5 mg/kg/injection, schedule: Q01DX005 (ip), vehicle: water",105 % of control
same,T/C,"dose: 25.0 mg/kg/injection, schedule: Q01DX005 (ip), vehicle: water",105 % of control
same,T/C,"dose: 50.0 mg/kg/injection, schedule: Q01DX005 (ip), vehicle: water",114 % of control and 118 % of control
same,T/C,"dose: 100.0 mg/kg/injection, schedule: Q01DX005 (ip), vehicle: water",123 % of control and 124 % of control
same,T/C,"dose: 200.0 mg/kg/injection, schedule: Q01DX005 (ip), vehicle: water",152 % of control
same,T/C,"dose: 400.0 mg/kg/injection, schedule: Q01DX005 (ip), vehicle: water",155 % of control
CC[C@@]1(O)C[C@H]2CN(CCc3c([nH]c4ccccc34)[C@@](C(=O)OC)(c3cc4c(cc3OC)N[C@H]3[C@@](O)(C(=O)OC)[C@H](OC(C)=O)[C@]5(CC)C=CCN6CC[C@]43[C@@H]65)C2)C1,T/C,"dose: 16.0 mg/kg/injection, schedule: Q01DX001 (ip), vehicle: water",153 % of control and 164 % of control
Cc1cccc(C)c1NC(=S)N1CCC(CCCC2CCN(C(=S)Nc3c(C)cccc3C)CC2)CC1,T/C,[5],86 % of control
same,T/C,[6],86 % of control
Cc1cccn2ccnc12,T/C,[14],100 % of control and 93 % of control
same,T/C,[15],100 % of control and 96 % of control
same,T/C,[16],120 % of control and 94 % of control
Nc1nc2ncc([N+](=O)[O-])cc2c(=O)[nH]1,T/C,[3],102 % of control
same,T/C,[4],100 % of control
C=CC(=NC(C)(C)C)Nc1ccc(Cl)cc1,T/C,[17],100 % of control
same,T/C,[10],94 % of control
same,T/C,[11],97 % of control
O=Cc1nnc(-c2ccccc2)o1,T/C,"dose: 12.5 mg/kg/injection, schedule: Q01DX009 (ip), vehicle: DMSO",90 % of control
same,T/C,"dose: 25.0 mg/kg/injection, schedule: Q01DX009 (ip), vehicle: DMSO",98 % of control
same,T/C,"dose: 50.0 mg/kg/injection, schedule: Q01DX009 (ip), vehicle: DMSO",93 % of control
NCC(SSC(CN)C(=O)O)C(=O)O (configuration not stated),T/C,[18],100 % of control
same,T/C,[14],101 % of control
same,T/C,[15],103 % of control and 115 % of control
CCc1c(C)nc2cc(-c3cc(C)n4c(=O)c(CC)c(C)nc4c3)cc(C)n2c1=O,T/C,"dose: 60.0 mg/kg/injection, schedule: Q01DX005 (ip), vehicle: Klucel (hydroxypropylcellulose) (HPC)",90 % of control
same,T/C,"dose: 120.0 mg/kg/injection, schedule: Q01DX005 (ip), vehicle: Klucel (hydroxypropylcellulose) (HPC)",96 % of control
same,T/C,"dose: 240.0 mg/kg/injection, schedule: Q01DX005 (ip), vehicle: Klucel (hydroxypropylcellulose) (HPC)",100 % of control
O=c1c(Br)cc(CN2CCOCC2)cc(CN2CCOCC2)c1O,T/C,[17],112 % of control
same,T/C,[10],116 % of control
CC(=O)C1=C(O)/C(=C\c2ccccc2)OC1=O,T/C,[12],92 % of control
same,T/C,[13],107 % of control
CC(C)c1cccc(C(C)C)c1NC(=O)OCCN(C)C,T/C,[7],100 % of control
same,T/C,[8],115 % of control
Nc1nc2c(c(=O)[nH]1)CNC2=O,T/C,[14],112 % of control
same,T/C,[15],116 % of control
same,T/C,[16],113 % of control
Nc1nnc(-c2ccc[n+]([O-])c2)o1,T/C,[7],96 % of control
same,T/C,[8],102 % of control
same,T/C,[9],105 % of control
N#CC[n+]1ccc2ccccc2c1,T/C,[18],105 % of control
same,T/C,[14],99 % of control
same,T/C,[15],101 % of control
